Reference: patent publication US20070015771A1, “Lonidamine analogs” (Threshold pharmaceuticals, Inc., priority 2004, published 2007)
Like-named read-outs stand apart in the source and are kept apart here.

Columns and labels:
[1] = tested on: H460 cells; test: Antiproliferation assay (Alamar Blue), H460 cells; type: cell-based
Description: (§1) To determine the effect of lonidamine and analogs thereof on cell proliferation, the antiproliferative activity of these compounds was tested in a multi-well Alamar Blue based assay (at 2 h and 3 days). Cell growth in the presence and absence of the test compound (compounds 1-22) was compared, as measured by a fluorescence plate reader at excitation 550 nm and emission 590 nm (see Biosource International Inc., Tech Application Notes, Use of Alamar Blue in the measurement of Cell Viability and Toxicity, Determining IC50). H460 cells (ATCC HTB-177 ([…]), 4,000 cells/well/200 μl) and LNCap cells (ATCC CRL-1740, 6,000 cells/well/200 μl) were seeded in a 96 well plate in RPMI medium (Invitrogen Corporation, Carlsbad, Calif.). After 24 hours, these plates were divided into 3 groups—Control group, 2 h treatment group and 3 day treatment group. In the 2 h treatment group, after 2 h the cells were rinsed to remove the test compound and incubated for 3 days, followed by staining with AlamarBlue. The cells in the 3 day treatment group were incubated for 3 days, followed by staining with AlamarBlue. In the Control group, AlamarBlue was added to the plate at (i) day 0 and (ii) day 3 and measured to establish the control reading.

[2] = tested on: PWR-1E cells; test: Antiproliferation assay, PWR-1E cells (Example 48); type: cell-based; details: read-out: IC50 PWR-1E cell
Description: as §1
The effect of lonidamine and analogs thereof on cell proliferation in PWR-1E cells (ATCC CRL-11611) was determined in an antiproliferative assay using PWR-1E cells (5000 cells/well) in Keratinocyte SFM medium (Gibco Products, Invitrogen Corporation, Carlsbad, Calif.) according to the procedure detailed in Example 47 above.

[3] = tested on: PWR-1E cells; test: Antiproliferation assay 3 days, PWR-1E cells (Example 49); type: cell-based; details: read-out: PWR1e cell line IC50
Description: (§2) To determine the effect of lonidamine analogs thereof on cell proliferation, the antiproliferative activity of these compounds was tested in a multi-well Alamar Blue based assay (at 3 days). Cell growth in the presence and absence of the test compound was compared, as measured by a fluoresence plate reader at excitation 550 nm and emission 590 nm (see Biosource International Inc., Tech Application Notes, Use of Alamar Blue in the measurement of Cell Viability and Toxity, Determining IC50). The following cell lines were tested: PWR-1E cells ((ATCC CRL-11611), 3500 cells/well/200 μl in Keratinocyte SFM medium (Gibco Products, Invitrogen Corporation, Carlsbad, Calif.)); DU-145 cells ((ATCC HTB-81), 4000 cells/well/200 μl in MEM Eagles medium (ATCC, Manassas, Va.)); PC3 cells ((ATCC CRL-1435), 4000 cells/200 μl in Modified HAM's F12 medium (ATCC, Manassas, Va.)); PNt2 cells ((Sigma-Aldrich, 95012613-1 VL), 4000 cells/well/200 μl in RPMI medium (Gibco Products, Invitrogen Corporation, Carlsbad, Calif.), BPH-1 ((DSMZ ACC-143), 4000 cells/well/200 μl in RPMI medium (Gibco Products, Invitrogen Corporation, Carlsbad, Calif), and NCI-H460 cells ((ATCC HTB-177), 4000 cells/well/200 μl in RPMI medium (Gibco Products, Invitrogen Corporation, Carlsbad, Calif.)). The cells were seeded in a 96 well plate in a medium specified above. After 24 hours, these plates were divided into 2 groups—Control group and 3 day treatment group. A test compound was added to each plate in the treatment groups at concentrations of […] as tabulated in Table 1 (in 2 μl 1 of 100% DMSO, final DMSO concentration 1% in all wells). For NCI-H460 cells, test compounds were added to each plate in the treatment groups at concentrations of 600, 300, 100, 30, 10, 3, and 1 μM (in 2 μl of 100% DMSO, final DMSO concentration 1% in all wells). The cells in the 3 day treatment group were incubated for 3 days, followed by staining with AlamarBlue. In the Control group, AlamarBlue was added to the plate at (i) day 0 and (ii) day 3 and measured to establish the control reading. […] For the NCI-H460 cells, the capacity of the cells to proliferate was measured 5 hours after addition of AlamarBlue using the same fluorescence plate reader as stated above.

[4] = tested on: LNCaP cells; test: Antiproliferation assay (Alamar Blue), LNCaP cells; type: cell-based, human; details: 3 day treatment, read-out: GI50 LNCaP cell 3days
Description: as §1

[5] = tested on: DU-145 cells; test: Antiproliferation assay 3 days, DU-145 cells; type: cell-based; details: 3 day treatment; read-out: Du-145 cell line IC50
Description: as §2

[6] = tested on: BPH-1; test: Antiproliferation assay 3 days, BPH-1 cells; type: cell-based; details: 3 day treatment; read-out: BPH-1 cell line IC50
Description: as §2

[7] = tested on: PNt2 cells; test: Antiproliferation assay 3 days, PNt2 cells; type: cell-based; details: 3 day treatment; read-out: PNT2c cell line IC50
Description: as §2

[8] = tested on: PC3 cells; test: Antiproliferation assay 3 days, PC3 cells; type: cell-based, human; details: 3 day treatment; read-out: PC-3 cell line IC50
Description: as §2

[9] = tested on: mouse prostate; test: Mouse study, 10 day effect of Compound 3 on prostate; type: in vivo; details: mice
Description: (§3) The 10 day effect of Compound 3 on the mouse prostate and its 5 day effect on mouse testis were determined as in Example 51 by using 10 mice per experiment group and the results are illustrated graphically in FIGS. 14-18.

[10] = tested on: mouse testis; test: Mouse study, 5 day effect of Compound 3 on testis; type: in vivo; details: mice
Description: as §3

[11] = tested on: SH rat prostate; test: 5 day systemic administration in male SH rats, prostate; type: in vivo; set-up: inhibition in vivo: dose or concentration left out as unconfirmed; details: for Prostate shrinkage: male SH rats, oral daily for 5 days at 50 mg/ml, day 6; for inhibition in vivo: Rattus norvegicus, po, 144 h, read-out: Prostate shrinkage
Description: (§4) The effect of test compounds (lonidamine and lonidamine analogs) on the SH rat prostate was determined as follows. The test compound was orally administered daily for 5 days to male, SH rat, (n=6, 14 weeks old, Charles River Labs) at 50 mg/ml concentrations (as a 0.5% carboxymethylcellulose formulation). The control rats received an equal amount of the vehicle ([…]). Blood samples were collected 2 hours after administration on day 6, for pharmokinetic analysis of the compounds. On day 6 the rats were sacrificed and the entire prostate and the individual lobes (e.g., the ventral, dorso-lateral, and anterior lobes) were removed and weighed to measure absolute weights. Relative weights of prostate and individual lobes were calculated by dividing the absolute weight by the total body weight of the […]. Relative weights of the entire prostate, the dorsal prostate, and the ventral prostate were calculated by dividing the absolute weight by the total weight of the mouse. The histomorphology of the prostate was also analyzed and compared to that of the control or untreated prostate.

[12] = tested on: testes; test: 5 day systemic administration in male SH rats, testis; type: in vivo, rat; set-up: inhibition in vivo: dose or concentration left out as unconfirmed; details: for Testis shrinkage: male SH rats, oral daily for 5 days at 50 mg/ml, day 6; for inhibition in vivo: Rattus norvegicus, po, 144 h, read-out: Testis shrinkage
[13] = 5 day systemic administration in male SH rats, pharmacokinetic blood samples; type: in vivo, rat; details: oral daily for 5 days at 50 mg/ml, blood 2 hours after administration; for concentration at 2 h: rat, in vivo, read-out: PK
Description: as §4

[14] = tested on: NCI-H460 cells; test: Antiproliferation assay 3 days, NCI-H460 cells; type: cell-based; details: Homo sapiens, NCI-H460, 72 h, read-out: NCI-H460 cell line IC50
Description: as §2

[15] = 3 day treatment, read-out: GI50 H460 cell 3 days
[16] = read-out: GI50 H460 cell 2 hr, 2 h treatment then 3 days incubation

| SMILES | GI50 [1, 15] [µM] | GI50 [1, 16] [µM] | IC50 [2] [µM] | IC50 ([3]; 3 day treatment) [µM] | Prostate shrinkage [11] [%] | Testis shrinkage [12] [%] | PK [13] [µg/mL] | inhibition in vivo [11] [%] | inhibition in vivo [12] [%] | IC50 ([3]; Homo sapiens, PWR-1E, 72 h) [µM] | IC50 [14] [µM] | also measured |
| --- | --- | --- | --- | --- | --- | --- | --- | --- | --- | --- | --- | --- |
| O=C(NO)c1nn(Cc2ccccc2)c2ccccc12 [Compound 2] | 31.6 | 400 | 18 | 18 |  |  |  |  |  |  |  |  |
| O=C(O)c1nn(Cc2c(Cl)cccc2Cl)c2ccccc12 [Compound 3] | 250 | 398 | 25 | 69 | −2.9 | 0.4 | 243 |  |  |  |  | GI50 [4]: 180 µM; IC50 [5]: 224 µM; IC50 [6]: 215 µM; IC50 [7]: 257 µM; IC50 [8]: 191 µM; absolute anterior prostate weight (FIG. 16) [9]: reduction; absolute dorsal prostate weight (FIG. 15) [9]: reduction; absolute ventral prostate weight (FIG. 14) [9]: reduction; absolute left testis weight (FIG. 18) [10]: reduction; absolute right testis weight (FIG. 17) [10]: reduction |
| CS(=O)(=O)NC(=O)c1nn(Cc2ccc(Cl)cc2Cl)c2ccccc12 [Compound 4] | 158 | 281 | 18 |  |  |  |  |  |  |  |  | GI50 [4]: 178 µM |
| NC(=O)c1nn(Cc2ccc(Cl)cc2Cl)c2ccccc12 [Compound 5] | 20 | 40 | 4 | 5.5 | −8.1 | −3.5 | 12 |  |  |  |  | GI50 [4]: 20 µM |
| O=C(O)c1nn(Cc2ccc(Cl)cc2Cl)c2ccccc12 [Compound 12] | > 400 | 251 | 20 | 31 | 17 | 42 | 153 |  |  |  |  | GI50 [4]: 125 µM; IC50 [5]: 214 µM; IC50 [6]: 230 µM; IC50 [7]: 198 µM; IC50 [8]: 195 µM |
| O=C(Nc1cccnc1)c1nn(Cc2ccc(Cl)cc2Cl)c2ccccc12 [Compound 51] |  |  |  |  | 8.7 | 2.2 | 0.45 |  |  |  |  |  |
| CONC(=O)c1nn(Cc2ccc(Cl)cc2Cl)c2ccccc12 [Compound 53] |  |  |  |  | 6.9 | 9.2 | 1 |  |  |  |  |  |
| O=C(NO)c1nn(Cc2ccc(Cl)cc2Cl)c2ccc(Cl)cc12 [Compound 54] |  |  |  | 1.3 | 6.8 | 0.3 | 120 |  |  |  |  |  |
| CN(O)C(=O)c1nn(Cc2ccc(Cl)cc2Cl)c2ccccc12 [Compound 56] |  |  |  | 2.6 |  |  |  |  |  |  |  | IC50 [5]: 3.25 µM; IC50 [6]: 1.65 µM; IC50 [7]: 1.25 µM; IC50 [8]: 4 µM |
| OCc1nn(Cc2ccc(Cl)cc2Cl)c2ccccc12 [Compound 58] |  |  |  |  |  |  |  | 12.9 | 26.5 |  |  | concentration at 2 h [13]: 0 µg/mL |
| O=C(O)c1nn(Cc2ccc(Cl)cc2)c2ccc(Cl)cc12 [Compound 64] |  |  |  |  |  |  |  | -0.4 | -1.3 | > 30 | 159 | concentration at 2 h [13]: 614 µg/mL |
| O=C(O)c1cn(Cc2ccc(Cl)cc2Cl)c2ccccc12 [Compound 78] |  |  |  |  |  |  |  | 10.1 | 5.7 | 22 | 89 |  |
| O=C(O)c1nn(Cc2ccc(Cl)c(Cl)c2)c2ccccc12 [Compound 82] |  |  |  |  |  |  |  | 5 | -1.1 | 36 | 128 |  |
| O=C(O)c1nn(Cc2cc(Cl)ccc2Cl)c2ccccc12 [Compound 83] |  |  |  |  |  |  |  | 31.7 | 48 | 38 | 126 |  |
| N#Cc1ccc(Cn2nc(C(=O)O)c3ccccc32)c(Cl)c1 [Compound 97] |  |  |  |  |  |  |  | 5.5 | 0.9 | 135 | > 300 | concentration at 2 h [13]: 0 µg/mL |
